Laboratory results published in paper PMC6751662, “Pharmacological and functional similarities of the human neuropeptide Y system in C. elegans challenges phylogenetic views on the FLP/NPR system” (Cell Communication and Signaling : CCS, 2019).

How the values were obtained:
Y4R = target: T1, Y4R (Homo sapiens, UniProt P50391); assay: cAMP reporter gene assay, Gi/o, Y4R; format: cell-based; conditions: for cAMP assay (Gi/o), Y4R: 4 h, lower = higher Gi/o activity, transfected HEK293, CRE-luciferase, mean of >=3 independent experiments; for Gi (Gs) [x-fold of forskolin], Y4R, mean: inhibition of cAMP production induced by 1 µM forskolin (set to 1.00), transiently transfected HEK293 cells, mean of at least three independent experiments
T1 construct: expressed in transfected cells; host or cells: HEK293, transient
Procedure: (§1) Activation of Gs and Gi/o was assessed with a cAMP reporter gene assay. HEK293 cells grown to 70–80% confluency in 6-well plates were transiently co-transfected with vectors encoding the receptor and the cAMP reporter gene plasmid pGL4.29 [luc2P/CRE/Hygro] (Promega; 4 μg total, 1:1 ratio) using Metafectene Pro (3 μl/μg DNA; Biontex) following the manufacturer’s instructions. 16 h post transfection, the cells were seeded into white 384-well plates at a density of 20,000 cells/well. On the next day, the medium was removed and the cells were stimulated with 20 μl of peptide solution (or forskolin as positive control) in serum-free DMEM for 4 h. For measuring Gi/o activity, the peptide solutions additionally contained 1 μM forskolin to elevate cellular cAMP levels. After incubation, the luciferase substrate OneGlo in lysis buffer (Promega) was added and the luminescence was measured in a microplate reader Tecan Spark (Tecan). Data were analyzed with GraphPad Prism 5.03 and are shown as fold of basal or fold of forskolin in case of Gαi/o activity.
(§2) For in vitro activation, data is presented as mean ± SEM of at least three independent experiments conducted in technical triplicate. […] For the C. elegans NPRs, we considered the strongest response elicited by any of the peptides downstream of a particular receptor as the receptor’s maximal signal. This may or may not be the biological maximum that can be reached by the ‘true’ endogenous agonist. For the human receptors, the response to the established endogenous agonist reflected the maximal signal.

NPFF1R = target: T2, NPFF1R (Homo sapiens, UniProt Q9GZQ6); assay: cAMP reporter gene assay, Gi/o, NPFF1R; format: cell-based; conditions: for cAMP assay (Gi/o), NPFF1R: 4 h, lower = higher Gi/o activity, transfected HEK293, CRE-luciferase, mean of >=3 independent experiments; for Gi (Gs) [x-fold of forskolin], NPFF1R, mean: inhibition of cAMP production induced by 1 µM forskolin (set to 1.00), transiently transfected HEK293 cells, mean of at least three independent experiments
T2 construct: expressed in transfected cells; host or cells: HEK293, transient
Procedure: as §1, §2

NPR-1 = target: T3, NPR-1 (Caenorhabditis elegans, UniProt Q18534); assay: IP accumulation assay, chimeric GαΔ6qi4myr, NPR-1; format: cell-based, C. elegans; design: expressed in transfected cells; host or cells: HEK293; conditions: 1 h, HBSS + 20 mM LiCl, HEK293 receptor + GαΔ6qi4myr, HTRF IP-One
T3 sequence (Q18534 1-457): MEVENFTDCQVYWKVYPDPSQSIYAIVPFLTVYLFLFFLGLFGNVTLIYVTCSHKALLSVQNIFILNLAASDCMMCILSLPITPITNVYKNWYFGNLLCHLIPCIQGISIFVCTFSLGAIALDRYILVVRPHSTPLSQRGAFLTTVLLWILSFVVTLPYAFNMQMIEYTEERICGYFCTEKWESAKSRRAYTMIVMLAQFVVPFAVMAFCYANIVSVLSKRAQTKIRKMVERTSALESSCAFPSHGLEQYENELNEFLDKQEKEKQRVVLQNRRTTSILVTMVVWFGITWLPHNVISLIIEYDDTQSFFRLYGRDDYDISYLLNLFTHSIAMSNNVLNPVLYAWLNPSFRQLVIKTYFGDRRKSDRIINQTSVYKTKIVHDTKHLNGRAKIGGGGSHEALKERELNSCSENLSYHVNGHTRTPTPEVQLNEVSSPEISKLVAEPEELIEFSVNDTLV
Procedure: (§3) For measuring IP accumulation, HEK293 cells grown to 70–80% confluency in 6-well plates were transiently co-transfected using Metafectene Pro (2.5 μl/μg DNA; Biontex) with plasmids containing receptor and/or mock (empty pcDNA3.1) (for endogenous Gq-coupling) using 4 μg total DNA in a ratio of 3:1 following the manufacturer’s instructions. For testing Gα16- and GαΔ6qi4myr-coupling, plasmids encoding the corresponding Gα protein were co-transfected instead of mock. Gα16 is naturally promiscuous and stimulates the phospholipase C (PLC) pathway leading to IP production, while the exchange of the C-terminal four amino acids of Gαq for the corresponding residues of Gαi1 in the chimeric GαΔ6qi4myr confers the ability to couple to Gi/o protein-preferring receptors but still stimulate PLC, thus specifically redirecting downstream cellular signaling. 16 h post transfection, the cells were seeded into white 384-well plates at a density of 20,000 cells/well. Media was removed 24 h later and the cells were incubated with the indicated concentration of peptides for 1 h in HBSS + 20 mM LiCl. IP accumulation was measured with the HTRF-based IP-One Gq kit (Cisbio) on a microplate reader (Tecan Spark).
as §2

NPR-3 = target: T4, NPR-3 (Caenorhabditis elegans, UniProt P90745); assay: IP accumulation assay, chimeric GαΔ6qi4myr, NPR-3; format: cell-based, C. elegans; conditions: 1 h, HBSS + 20 mM LiCl, HEK293 receptor + GαΔ6qi4myr, HTRF IP-One
T4 construct: expressed in transfected cells; host or cells: HEK293
T4 sequence (P90745 1-376): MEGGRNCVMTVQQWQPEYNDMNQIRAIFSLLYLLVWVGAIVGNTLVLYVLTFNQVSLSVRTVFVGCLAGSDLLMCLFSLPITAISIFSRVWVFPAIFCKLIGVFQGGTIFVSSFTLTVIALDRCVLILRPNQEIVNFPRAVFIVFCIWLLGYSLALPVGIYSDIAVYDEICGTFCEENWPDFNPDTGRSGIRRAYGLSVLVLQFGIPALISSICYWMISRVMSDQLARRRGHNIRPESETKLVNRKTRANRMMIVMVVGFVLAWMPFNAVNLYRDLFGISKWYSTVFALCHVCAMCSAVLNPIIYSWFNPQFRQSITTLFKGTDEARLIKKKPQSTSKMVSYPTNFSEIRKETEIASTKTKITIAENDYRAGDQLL
Procedure: as §3, §2

NPR-11 = target: T5, NPR-11 (Caenorhabditis elegans, UniProt Q18179); assay: IP accumulation assay, chimeric GαΔ6qi4myr, NPR-11; format: cell-based, C. elegans; conditions: 1 h, HBSS + 20 mM LiCl, HEK293 receptor + GαΔ6qi4myr, HTRF IP-One
T5 construct: expressed in transfected cells; host or cells: HEK293, transient
T5 sequence (Q18179 1-402): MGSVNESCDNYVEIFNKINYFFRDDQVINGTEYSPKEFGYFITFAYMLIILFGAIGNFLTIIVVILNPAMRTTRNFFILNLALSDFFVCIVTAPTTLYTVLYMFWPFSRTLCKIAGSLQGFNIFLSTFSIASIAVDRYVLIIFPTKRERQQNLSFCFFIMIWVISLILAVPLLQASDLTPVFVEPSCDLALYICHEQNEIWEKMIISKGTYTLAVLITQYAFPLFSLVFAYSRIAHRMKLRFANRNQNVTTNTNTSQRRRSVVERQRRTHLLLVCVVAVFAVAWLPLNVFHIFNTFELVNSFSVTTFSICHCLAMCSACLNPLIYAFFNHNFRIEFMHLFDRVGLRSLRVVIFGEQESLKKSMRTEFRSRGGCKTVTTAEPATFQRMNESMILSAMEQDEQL
Procedure: as §3, §2

[1] = system: mock (empty vector) transfected HEK293 cells; assay: IP accumulation assay, negative control: empty vector (mock) instead of the receptor; format: cell-based, Homo sapiens; conditions: 1 h, HBSS + 20 mM LiCl, HEK293 with empty vector instead of receptor (negative control), HTRF IP-One, mean of >=3 independent experiments
Procedure: as §3, §2

[2] = 0.1 µM peptide + 1 µM forskolin (set to 1.00)
[3] = 10 µM peptide + 1 µM forskolin (set to 1.00)
[4] = 0.1 nM peptide (Table S5), mean of >=3 independent experiments
[5] = 0.1 µM peptide (Table S8), mean of >=3 independent experiments
[6] = 10 µM peptide, mean of >=3 independent experiments (Tables S5 and S8)

T2 sequence (Q9GZQ6 whole entry): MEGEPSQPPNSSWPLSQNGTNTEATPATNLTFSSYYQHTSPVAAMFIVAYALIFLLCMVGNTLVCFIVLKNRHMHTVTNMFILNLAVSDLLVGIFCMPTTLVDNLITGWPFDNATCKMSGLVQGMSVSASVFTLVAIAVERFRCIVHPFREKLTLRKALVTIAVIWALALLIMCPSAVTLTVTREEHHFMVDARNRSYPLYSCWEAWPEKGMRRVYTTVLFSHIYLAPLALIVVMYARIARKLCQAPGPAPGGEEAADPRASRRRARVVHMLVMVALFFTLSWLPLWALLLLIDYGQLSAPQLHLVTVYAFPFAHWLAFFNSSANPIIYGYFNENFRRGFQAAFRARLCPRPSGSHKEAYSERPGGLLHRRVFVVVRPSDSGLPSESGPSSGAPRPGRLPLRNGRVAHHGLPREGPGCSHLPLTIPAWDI
T1 sequence (P50391 whole entry): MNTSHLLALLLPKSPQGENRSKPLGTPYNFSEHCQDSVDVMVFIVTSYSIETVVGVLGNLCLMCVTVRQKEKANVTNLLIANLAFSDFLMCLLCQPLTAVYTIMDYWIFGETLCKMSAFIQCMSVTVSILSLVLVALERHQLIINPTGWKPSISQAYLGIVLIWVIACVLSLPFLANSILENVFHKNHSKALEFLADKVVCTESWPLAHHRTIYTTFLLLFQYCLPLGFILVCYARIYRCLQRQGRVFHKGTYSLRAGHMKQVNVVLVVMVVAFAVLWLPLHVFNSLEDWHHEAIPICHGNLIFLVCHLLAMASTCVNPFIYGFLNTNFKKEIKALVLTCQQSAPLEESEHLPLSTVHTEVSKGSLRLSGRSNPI

| IP accumulation with GαΔ6qi4myr, NPR-1 (NPR-1; [5]) | IP accumulation with GαΔ6qi4myr, NPR-1 (NPR-1; [6]) | IP accumulation with GαΔ6qi4myr, NPR-3 (NPR-3; [5]) | IP accumulation with GαΔ6qi4myr, NPR-3 (NPR-3; [6]) | IP accumulation with GαΔ6qi4myr, NPR-11 (NPR-11; [5]) | IP accumulation with GαΔ6qi4myr, NPR-11 (NPR-11; [6]) | Substance | IP accumulation, mock ([1]; 0.1 µM peptide) | IP accumulation, mock ([1]; 10 µM peptide) | further results |
| --- | --- | --- | --- | --- | --- | --- | --- | --- | --- |
| – | – | – | – | – | – | EASAFGDIIGELKGKGLGGRMRF-NH2 [FLP-27, NPY-like C. elegans FLP with C-terminal RxRF/Ya signature] | – | – | cAMP assay (Gi/o), Y4R (Y4R; [2]): 1.01 x-fold of forskolin; cAMP assay (Gi/o), Y4R (Y4R; [3]): 0.75 x-fold of forskolin; cAMP assay (Gi/o), NPFF1R (NPFF1R; [2]): 0.76 x-fold of forskolin; cAMP assay (Gi/o), NPFF1R (NPFF1R; [3]): 0.26 x-fold of forskolin |
| 0.88 x-fold of basal | 0.93 x-fold of basal | 0.88 x-fold of basal | 0.95 x-fold of basal | 1.03 x-fold of basal | 6.49 x-fold of basal | APKPKFIRF-NH2 [FLP-5-1, C. elegans FMRFamide-like peptide, C-terminally amidated, synthesized by SPPS] | 1.08 x-fold of basal | 1.01 x-fold of basal | IP assay endog. Gαq + GαΔ6qi4myr, NPR-1 (NPR-1; [4]): 0.88 x-fold of basal; IP assay endog. Gαq + GαΔ6qi4myr, NPR-3 (NPR-3; [4]): 0.88 x-fold of basal; IP assay endog. Gαq + GαΔ6qi4myr, NPR-11 (NPR-11; [4]): 1.03 x-fold of basal |
| – | – | – | – | – | – | GLGPRPLAF-NH2 [[R8A]FLP-21, R8A control peptide of FLP-21, penultimate arginine exchanged for an alanine] | – | – | Gi (Gs) [x-fold of forskolin], Y4R, mean (Y4R; 0.1 µM peptide): 0.81 x-fold of forskolin; Gi (Gs) [x-fold of forskolin], Y4R, mean (Y4R; 10 µM peptide): 0.85 x-fold of forskolin; Gi (Gs) [x-fold of forskolin], NPFF1R, mean (NPFF1R; 0.1 µM peptide): 1.03 x-fold of forskolin; Gi (Gs) [x-fold of forskolin], NPFF1R, mean (NPFF1R; 10 µM peptide): 0.66 x-fold of forskolin |
| 1.03 x-fold of basal | 0.98 x-fold of basal | 0.96 x-fold of basal | 0.93 x-fold of basal | 0.92 x-fold of basal | 6.48 x-fold of basal | AGSDPNFLRF-NH2 [FLP-1-2, C. elegans FMRFamide-like peptide, C-terminally amidated, synthesized by SPPS] | 4.14 x-fold of basal | 1.78 x-fold of basal | – |
| 0.83 x-fold of basal | 0.89 x-fold of basal | 0.92 x-fold of basal | 1.05 x-fold of basal | 1.03 x-fold of basal | 2.79 x-fold of basal | ASPSFIRF-NH2 [FLP-4-2, C. elegans FMRFamide-like peptide, C-terminally amidated, synthesized by SPPS] | 0.75 x-fold of basal | 0.75 x-fold of basal | – |
| 0.98 x-fold of basal | 0.94 x-fold of basal | 0.97 x-fold of basal | 0.91 x-fold of basal | 0.92 x-fold of basal | 1.17 x-fold of basal | NPENDTPFGTMRF-NH2 [FLP-3-4, C. elegans FMRFamide-like peptide, C-terminally amidated, synthesized by SPPS] | 1.08 x-fold of basal | 1.16 x-fold of basal | – |
| – | – | – | – | – | – | RGPSGPLAF-NH2 [[R8A]FLP-15-2] | – | – | Gi (Gs) [x-fold of forskolin], Y4R, mean (Y4R; 0.1 µM peptide): 0.79 x-fold of forskolin; Gi (Gs) [x-fold of forskolin], Y4R, mean (Y4R; 10 µM peptide): 0.94 x-fold of forskolin; Gi (Gs) [x-fold of forskolin], NPFF1R, mean (NPFF1R; 0.1 µM peptide): 0.91 x-fold of forskolin; Gi (Gs) [x-fold of forskolin], NPFF1R, mean (NPFF1R; 10 µM peptide): 0.71 x-fold of forskolin |
| – | – | – | – | – | – | APLEGFEDMSGFLRTIDGIQKPRF-NH2 [FLP-33, NPY-like C. elegans FLP with C-terminal RxRF/Ya signature] | – | – | cAMP assay (Gi/o), Y4R (Y4R; [2]): 0.95 x-fold of forskolin; cAMP assay (Gi/o), Y4R (Y4R; [3]): 0.90 x-fold of forskolin; cAMP assay (Gi/o), NPFF1R (NPFF1R; [2]): 0.81 x-fold of forskolin; cAMP assay (Gi/o), NPFF1R (NPFF1R; [3]): 0.47 x-fold of forskolin |
